Several values for one entry are separate records, joined by “and”; a condition that tells them apart may be missing. Equal entries are not always repeated.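 Protocol summary: plate cells (96-well), add compound at 5 concentrations, incubate 48 h, interpolate endpoints linearly. At the GI50, growth is halved. TGI marks complete inhibition of growth.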
How the values were obtained:
Assay in all cases: growth of human tumour cells (NCI), 48 h
A498 renal = tested on: A498 renal
SF-295 CNS = tested on: SF-295 CNS
HCT-116 colon = tested on: HCT-116 colon
XF 498 CNS = tested on: XF 498 CNS
HOP-62 NSCLC = tested on: HOP-62 NSCLC
COLO 205 colon = tested on: COLO 205 colon
LOX IMVI melanoma = tested on: LOX IMVI melanoma
CCRF-CEM leukemia = tested on: CCRF-CEM leukemia
MOLT-4 leukemia = tested on: MOLT-4 leukemia
SF-539 CNS = tested on: SF-539 CNS
UACC-257 melanoma = tested on: UACC-257 melanoma
OVCAR-3 ovarian = tested on: OVCAR-3 ovarian
OVCAR-5 ovarian = tested on: OVCAR-5 ovarian
HL-60(TB) leukemia = tested on: HL-60(TB) leukemia
OVCAR-4 ovarian = tested on: OVCAR-4 ovarian
SK-MEL-5 melanoma = tested on: SK-MEL-5 melanoma
HT29 colon = tested on: HT29 colon
IGROV1 ovarian = tested on: IGROV1 ovarian
UO-31 renal = tested on: UO-31 renal
OVCAR-8 ovarian = tested on: OVCAR-8 ovarian
NCI-H226 lung = tested on: NCI-H226 lung
HOP-92 NSCLC = tested on: HOP-92 NSCLC
HCT-15 colon = tested on: HCT-15 colon
SNB-75 CNS = tested on: SNB-75 CNS
786-0 renal = tested on: 786-0 renal
NCI-H23 lung = tested on: NCI-H23 lung
TK-10 renal = tested on: TK-10 renal
SNB-78 CNS = tested on: SNB-78 CNS
DMS 114 small cell lung = tested on: DMS 114 small cell lung
SK-OV-3 ovarian = tested on: SK-OV-3 ovarian
HOP-18 NSCLC = tested on: HOP-18 NSCLC
NCI-H522 lung = tested on: NCI-H522 lung
SF-268 CNS = tested on: SF-268 CNS
CAKI-1 renal = tested on: CAKI-1 renal
KM12 colon = tested on: KM12 colon
UACC-62 melanoma = tested on: UACC-62 melanoma
MALME-3M melanoma = tested on: MALME-3M melanoma
A549 NSCLC = tested on: A549 NSCLC
DLD-1 colon = tested on: DLD-1 colon
K-562 leukemia = tested on: K-562 leukemia
RXF 393 renal = tested on: RXF 393 renal
SR leukemia = tested on: SR leukemia
KM20L2 colon = tested on: KM20L2 colon
NCI-H460 lung = tested on: NCI-H460 lung
M19-MEL melanoma = tested on: M19-MEL melanoma
EKVX NSCLC = tested on: EKVX NSCLC
U251 CNS = tested on: U251 CNS
RPMI-8226 leukemia = tested on: RPMI-8226 leukemia
DMS 273 small cell lung = tested on: DMS 273 small cell lung
SW-620 colon = tested on: SW-620 colon
SK-MEL-2 melanoma = tested on: SK-MEL-2 melanoma
SNB-19 CNS = tested on: SNB-19 CNS
RXF-631 renal = tested on: RXF-631 renal
M14 melanoma = tested on: M14 melanoma
LXFL 529 NSCLC = tested on: LXFL 529 NSCLC
ACHN renal = tested on: ACHN renal
HCC-2998 colon = tested on: HCC-2998 colon
SN12C renal = tested on: SN12C renal
SK-MEL-28 melanoma = tested on: SK-MEL-28 melanoma

Compound: O=C1C(c2ccccc2)=C(c2ccccc2)C(c2ccc(Cc3ccc(C4=C(c5ccccc5)C(=O)C(c5ccccc5)=C4c4ccccc4)cc3)cc2)=C1c1ccccc1
- TGI (A498 renal): > 100 µM
- TGI (SF-295 CNS): > 100 µM
- TGI (HCT-116 colon): > 100 µM
- TGI (XF 498 CNS): > 100 µM
- TGI (HOP-62 NSCLC): > 100 µM
- TGI (COLO 205 colon): > 100 µM
- TGI (LOX IMVI melanoma): > 100 µM
- TGI (CCRF-CEM leukemia): > 100 µM
- TGI (MOLT-4 leukemia): > 100 µM
- TGI (SF-539 CNS): > 100 µM
- TGI (UACC-257 melanoma): > 100 µM
- TGI (OVCAR-3 ovarian): > 100 µM
- TGI (OVCAR-5 ovarian): > 100 µM
- TGI (HL-60(TB) leukemia): > 100 µM
- TGI (OVCAR-4 ovarian): > 100 µM
- TGI (SK-MEL-5 melanoma): > 100 µM
- TGI (HT29 colon): > 100 µM
- TGI (IGROV1 ovarian): > 100 µM
- TGI (UO-31 renal): > 100 µM
- TGI (OVCAR-8 ovarian): > 100 µM
- TGI (NCI-H226 lung): > 100 µM
- TGI (HOP-92 NSCLC): > 100 µM
- TGI (HCT-15 colon): > 100 µM
- TGI (SNB-75 CNS): > 100 µM
- TGI (786-0 renal): > 100 µM
- TGI (NCI-H23 lung): > 100 µM
- TGI (TK-10 renal): > 100 µM
- TGI (SNB-78 CNS): > 100 µM
- TGI (DMS 114 small cell lung): > 100 µM
- TGI (SK-OV-3 ovarian): > 100 µM
- TGI (HOP-18 NSCLC): > 100 µM
- TGI (NCI-H522 lung): > 100 µM
- TGI (SF-268 CNS): > 100 µM
- TGI (CAKI-1 renal): > 100 µM
- TGI (KM12 colon): > 100 µM
- TGI (UACC-62 melanoma): > 100 µM
- TGI (MALME-3M melanoma): > 100 µM
- TGI (A549 NSCLC): > 100 µM
- TGI (DLD-1 colon): > 100 µM
- TGI (K-562 leukemia): > 100 µM
- TGI (RXF 393 renal): > 100 µM
- TGI (SR leukemia): > 100 µM
- TGI (KM20L2 colon): > 100 µM
- TGI (NCI-H460 lung): > 100 µM
- TGI (M19-MEL melanoma): > 100 µM
- TGI (EKVX NSCLC): > 100 µM
- TGI (U251 CNS): > 100 µM
- TGI (RPMI-8226 leukemia): > 100 µM
- TGI (DMS 273 small cell lung): > 100 µM
- TGI (SW-620 colon): > 100 µM
- TGI (SK-MEL-2 melanoma): > 100 µM
- TGI (SNB-19 CNS): > 100 µM

Compound: O=C1[C@@H]2C(c3ccc(Br)cc3)=NO[C@@H]2C(=O)N1c1ccc(Cc2ccc(N3C(=O)[C@H]4C(c5ccc(Br)cc5)=NO[C@H]4C3=O)cc2)cc1
- TGI (A498 renal): > 3.48 µM and 16.2 µM
- TGI (SF-295 CNS): > 3.48 µM
- TGI (HCT-116 colon): > 40 µM
- TGI (HOP-62 NSCLC): > 3.48 µM
- TGI (RXF-631 renal): > 40 µM
- GI50 (COLO 205 colon): > 40 µM
- TGI (COLO 205 colon): > 40 µM
- GI50 (CCRF-CEM leukemia): > 40 µM
- TGI (CCRF-CEM leukemia): > 40 µM
- GI50 (MOLT-4 leukemia): > 40 µM
- TGI (MOLT-4 leukemia): > 40 µM
- TGI (SF-539 CNS): > 3.48 µM
- GI50 (UACC-257 melanoma): > 40 µM
- TGI (UACC-257 melanoma): > 40 µM
- GI50 (OVCAR-3 ovarian): > 40 µM
- TGI (OVCAR-3 ovarian): > 40 µM
- GI50 (M14 melanoma): > 40 µM
- TGI (M14 melanoma): > 40 µM
- GI50 (OVCAR-5 ovarian): > 40 µM
- TGI (OVCAR-5 ovarian): > 40 µM
- TGI (HL-60(TB) leukemia): > 3.48 µM
- GI50 (LXFL 529 NSCLC): > 40 µM
- TGI (LXFL 529 NSCLC): > 40 µM
- GI50 (OVCAR-4 ovarian): > 40 µM
- TGI (OVCAR-4 ovarian): > 40 µM
- TGI (SK-MEL-5 melanoma): > 3.48 µM
- GI50 (HT29 colon): > 40 µM
- TGI (HT29 colon): > 40 µM
- GI50 (IGROV1 ovarian): > 40 µM
- TGI (IGROV1 ovarian): > 40 µM
- GI50 (UO-31 renal): > 40 µM
- TGI (UO-31 renal): > 40 µM
- GI50 (OVCAR-8 ovarian): > 40 µM
- TGI (OVCAR-8 ovarian): > 40 µM
- TGI (ACHN renal): > 40 µM
- TGI (HOP-92 NSCLC): > 40 µM
- TGI (HCT-15 colon): > 40 µM
- GI50 (SNB-75 CNS): > 40 µM
- TGI (SNB-75 CNS): > 40 µM
- TGI (786-0 renal): > 3.48 µM
- TGI (NCI-H23 lung): > 3.48 µM
- TGI (TK-10 renal): > 40 µM
- GI50 (SNB-78 CNS): > 40 µM
- TGI (SNB-78 CNS): > 40 µM
- TGI (DMS 114 small cell lung): > 3.48 µM
- TGI (SK-OV-3 ovarian): > 3.48 µM
- GI50 (HOP-18 NSCLC): > 40 µM
- TGI (HOP-18 NSCLC): > 40 µM
- TGI (HCC-2998 colon): > 3.48 µM
- GI50 (NCI-H522 lung): > 40 µM
- TGI (NCI-H522 lung): > 40 µM
- TGI (SF-268 CNS): > 3.48 µM
- GI50 (CAKI-1 renal): > 40 µM
- TGI (CAKI-1 renal): > 40 µM
- TGI (KM12 colon): > 3.48 µM
- GI50 (UACC-62 melanoma): > 40 µM
- TGI (UACC-62 melanoma): > 40 µM
- GI50 (MALME-3M melanoma): > 40 µM
- TGI (MALME-3M melanoma): > 40 µM
- TGI (A549 NSCLC): > 3.48 µM
- GI50 (DLD-1 colon): > 40 µM
- TGI (DLD-1 colon): > 40 µM
- TGI (SN12C renal): > 40 µM
- GI50 (K-562 leukemia): > 40 µM
- TGI (K-562 leukemia): > 40 µM
- GI50 (RXF 393 renal): > 40 µM
- TGI (RXF 393 renal): > 40 µM
- TGI (SR leukemia): > 40 µM
- GI50 (KM20L2 colon): > 40 µM
- TGI (KM20L2 colon): > 40 µM
- GI50 (NCI-H460 lung): > 40 µM
- TGI (NCI-H460 lung): > 40 µM
- GI50 (M19-MEL melanoma): > 40 µM
- TGI (M19-MEL melanoma): > 40 µM
- TGI (EKVX NSCLC): > 3.48 µM
- GI50 (SK-MEL-28 melanoma): > 40 µM
- TGI (SK-MEL-28 melanoma): > 40 µM
- TGI (U251 CNS): > 3.48 µM
- GI50 (RPMI-8226 leukemia): > 40 µM
- TGI (RPMI-8226 leukemia): > 40 µM
- TGI (DMS 273 small cell lung): > 40 µM
- GI50 (SW-620 colon): > 40 µM
- TGI (SW-620 colon): > 40 µM
- GI50 (SK-MEL-2 melanoma): > 40 µM
- TGI (SK-MEL-2 melanoma): > 40 µM
- TGI (SNB-19 CNS): > 3.48 µM

From PubChem BioAssay (NCI)
